{"source": "ChEMBL document CHEMBL1201862", "about": "“PubChem BioAssay data set” (2004)", "key": {"H4": {"system": "H4", "experiment": "Luminescence Cell-Based Dose Response HTS to Identify Activators of 5'UTR Stem-Loop Driven Prion Protein mRNA Translation in H4 Neuroglioblastoma Cells. [Related pubchem assays: 1829 (Project Summary), 1814 (Primary HTS)]", "type": "functional", "conditions": "Homo sapiens"}, "[1]": {"experiment": "Luminescence Cell-Based Dose Response HTS to Identify Activators of Luciferase Translation or Activity in H4 […] Cells. [Related pubchem assays: 1829 (Project Summary), 1814 (Primary HTS)]", "type": "functional"}, "[2]": {"experiment": "Luminescence Cell-Based Dose Confirmation HTS to Identify Activators of 5'UTR Stem-Loop Driven Alpha-Synuclein mRNA Translation in H4 Neuroglioblastoma Cells. [Related pubchem assays: 1829 (Project Summary), 1814 (Primary HTS)]", "type": "functional"}, "H9c2": {"system": "H9c2", "experiment": "cells", "type": "functional, cell-based", "conditions": "Rattus norvegicus, H9c2, Myocardium"}, "[3]": {"molecular_target": "T1, Ubiquitin-conjugating enzyme E2 N (Homo sapiens, UniProt P61088)", "T1 sequence (P61088 whole entry)": "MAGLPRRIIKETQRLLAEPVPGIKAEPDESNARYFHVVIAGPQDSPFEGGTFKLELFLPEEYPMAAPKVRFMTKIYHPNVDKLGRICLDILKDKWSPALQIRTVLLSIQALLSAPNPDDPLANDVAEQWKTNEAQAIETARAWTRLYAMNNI", "type": "functional"}, "[4]": {"molecular_target": "T2, RNA-binding protein pos-1 (Caenorhabditis elegans, UniProt G5EF15)", "T2 sequence (G5EF15 whole entry)": "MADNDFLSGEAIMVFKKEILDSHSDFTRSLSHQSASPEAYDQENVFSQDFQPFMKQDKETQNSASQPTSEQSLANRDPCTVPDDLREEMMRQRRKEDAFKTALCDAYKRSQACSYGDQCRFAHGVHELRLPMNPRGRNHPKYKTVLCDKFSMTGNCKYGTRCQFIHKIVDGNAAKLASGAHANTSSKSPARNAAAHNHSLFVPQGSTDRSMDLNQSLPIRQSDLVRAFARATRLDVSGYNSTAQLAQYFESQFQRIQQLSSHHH", "experiment": "disruptors of C. elegans POS-1 RNA interaction – biochemical, fluorescence polarization, dose response (AID 1964);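 further: purified POS-1 fused to maltose binding protein made in E. coli; potency of compounds blocking POS-1 binding to fluorescent RNA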"}, "[5]": {"molecular_target": "T3, Zinc finger protein mex-5 (Caenorhabditis elegans, UniProt Q9XUB2)", "T3 sequence (Q9XUB2 whole entry)": "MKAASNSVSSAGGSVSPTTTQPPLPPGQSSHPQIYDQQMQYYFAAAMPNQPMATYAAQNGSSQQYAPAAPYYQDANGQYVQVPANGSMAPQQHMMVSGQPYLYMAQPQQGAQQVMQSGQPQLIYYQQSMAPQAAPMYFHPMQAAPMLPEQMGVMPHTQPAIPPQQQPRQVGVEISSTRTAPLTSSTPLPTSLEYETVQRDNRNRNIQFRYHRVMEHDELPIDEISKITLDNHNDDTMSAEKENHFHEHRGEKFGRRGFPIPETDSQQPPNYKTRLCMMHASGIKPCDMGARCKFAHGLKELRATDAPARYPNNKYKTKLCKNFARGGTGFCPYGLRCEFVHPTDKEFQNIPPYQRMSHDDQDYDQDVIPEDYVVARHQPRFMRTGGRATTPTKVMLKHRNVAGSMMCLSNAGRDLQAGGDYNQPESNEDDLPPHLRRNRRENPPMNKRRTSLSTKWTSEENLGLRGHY", "experiment": "potency of MEX-5 RNA-binding blockers – biochemical, C. elegans, fluorescence polarization, dose response (AID 1960)"}, "INS1": {"system": "INS1", "experiment": "INS-1E survival protection against cytokine death – cell-based, luminescence, retest, dose response (AID 449756);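 further: cell death triggered by IL-1 beta plus TNF-alpha plus IFN-gamma mixture; protective hits raise ATP signal compared with cytokine alone wells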", "type": "functional", "conditions": "Rattus norvegicus"}, "[6]": {"molecular_target": "FAD-linked sulfhydryl oxidase ALR (Homo sapiens, UniProt P55789)", "sequence (P55789 whole entry)": "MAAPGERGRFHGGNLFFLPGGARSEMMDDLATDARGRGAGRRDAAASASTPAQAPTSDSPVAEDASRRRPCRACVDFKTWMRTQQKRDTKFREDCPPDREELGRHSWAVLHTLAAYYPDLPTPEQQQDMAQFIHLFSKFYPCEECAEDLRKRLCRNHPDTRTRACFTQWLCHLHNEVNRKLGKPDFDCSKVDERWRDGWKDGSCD", "experiment": "ALR-catalysed DTT oxidation blockers – biochemical, H2O2 detection, luminescence, cherry-pick, dose response (AID 493248)"}, "[7]": {"experiment": "reduction of Shn3 3'UTR-driven luciferase in osteoblasts – cell-based, Clone20 osteoblasts, firefly luciferase, cherry-picked, dose response (AID 624132);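 further: firefly luciferase luminescence from reporter carrying the Shn3 3'UTR in osteoblasts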", "type": "functional"}, "cells": {"experiment": "cells", "type": "functional"}}, "note": "The source made the active and inactive calls.", "data": [{"smiles": "Cc1cnc(C(=O)Nc2ccc(OC(F)(F)F)cc2)cn1", "values": [{"measurement": "EC50", "setting": "H4", "result": "98.1 µM (active)"}, {"measurement": "EC50", "setting": "[1]", "result": "17.5 µM (active)"}, {"measurement": "EC50", "setting": "[2]", "result": "13.9 µM (active)"}]}, {"smiles": "Cc1cc(NC(=O)C2CCCCC2)nc2c1c(=O)oc1ccccc12", "values": [{"measurement": "IC50", "setting": "H9c2", "result": "7.59 µM (active)"}]}, {"smiles": "Cc1cc(N2CCN(C)CC2)nc2ccc(NC(=S)N3CCN(c4cccc(Cl)c4)CC3)cc12", "values": [{"measurement": "IC50", "setting": "[3]", "result": "> 20 µM (inactive)"}]}, {"smiles": "COc1ccc(NC2=C(Cl)C(=O)N(CCc3ccccc3)C2=O)c(OC)c1", "values": [{"measurement": "EC50", "setting": "H4", "result": "33.2 µM (active)"}, {"measurement": "EC50", "setting": "[1]", "result": "8.34 µM (active)"}, {"measurement": "EC50", "setting": "[2]", "result": "5.35 µM (active)"}]}, {"smiles": "Cc1ccc(S(=O)(=O)C(C#N)c2nc3ccccc3nc2N2CCC(C)CC2)cc1", "note": "(stereo unspecified)", "values": [{"measurement": "EC50", "setting": "[4]", "result": "> 300 µM (inconclusive)"}, {"measurement": "EC50", "setting": "[5]", "result": "24.6 µM (active)"}]}, {"smiles": "CCC(=O)OC1(C)C(=O)C=C2C=C(CCCC(=O)OC)OC=C2C1=O", "note": "(stereo unspecified)", "values": [{"measurement": "EC50", "setting": "[4]", "result": "27.8 µM (active)"}, {"measurement": "EC50", "setting": "[5]", "result": "22.8 µM (active)"}]}, {"smiles": "COc1ccc(C2C=C(c3ccc(Br)s3)Nc3ncnn32)cc1OC", "note": "(stereo unspecified)", "values": [{"measurement": "EC50", "setting": "[4]", "result": "7.82 µM (active)"}, {"measurement": "EC50", "setting": "[5]", "result": "6.36 µM (inconclusive)"}]}, {"smiles": "Cc1ccc(NC(=O)C2=C(O)CCn3c2nc2ccccc23)cc1", "values": [{"measurement": "EC50", "setting": "H4", "result": "> 60 µM (not active)"}, {"measurement": "EC50", "setting": "[1]", "result": "12.5 µM (active)"}, {"measurement": "EC50", "setting": "[2]", "result": "> 120 µM (not active)"}]}, {"smiles": "CCn1ccnc1CN(C)Cc1nc(-c2ccc3c(c2)OCO3)no1", "values": [{"measurement": "EC50", "setting": "H4", "result": "21.4 µM (active)"}, {"measurement": "EC50", "setting": "[1]", "result": "12.5 µM (active)"}, {"measurement": "EC50", "setting": "[2]", "result": "6.38 µM (active)"}]}, {"smiles": "COc1ccc(NC(=O)c2oc3ccc(S(=O)(=O)N4CCOCC4)cc3c2C)cc1", "values": [{"measurement": "IC50", "setting": "H9c2", "result": "> 79 µM (inactive)"}]}, {"smiles": "CCOC(=O)c1[nH]c(C)c(C(=O)Nc2ccc(C)c(Cl)c2)c1C", "values": [{"measurement": "EC50", "setting": "H4", "result": "> 120 µM (not active)"}, {"measurement": "EC50", "setting": "[1]", "result": "13.3 µM (active)"}, {"measurement": "EC50", "setting": "[2]", "result": "> 120 µM (not active)"}]}, {"smiles": "CCC(=O)OC1(C)C(=O)C=C2C=C(CCCCNC(=O)OC(C)(C)C)OC=C2C1=O", "note": "(stereo unspecified)", "values": [{"measurement": "EC50", "setting": "[4]", "result": "33.5 µM (active)"}, {"measurement": "EC50", "setting": "[5]", "result": "28.4 µM (active)"}]}, {"smiles": "COC(=O)c1ccccc1-n1c(CCC(=O)O)ccc1-c1ccccc1", "values": [{"measurement": "EC50", "setting": "[4]", "result": "> 300 µM (not active)"}, {"measurement": "EC50", "setting": "[5]", "result": "> 300 µM (not active)"}]}, {"smiles": "COc1ccccc1NC(=O)c1cc(-c2cc(OC)c(OC)c(OC)c2)nc2ccccc12", "values": [{"measurement": "IC50", "setting": "H9c2", "result": "> 79 µM (inactive)"}]}, {"smiles": "O=C1c2ccccc2C(=O)N1CCCc1nc(-c2ccncc2)no1", "values": [{"measurement": "EC50", "setting": "[4]", "result": "> 300 µM (not active)"}, {"measurement": "EC50", "setting": "[5]", "result": "> 300 µM (not active)"}]}, {"smiles": "COc1ccccc1CNC(=O)c1ccc2c(=O)n(CCCN3CCCC3=O)c(=S)[nH]c2c1", "values": [{"measurement": "IC50", "setting": "[3]", "result": "> 20 µM (inactive)"}]}, {"smiles": "COC(=O)c1cc(OC)c(OC)cc1NC(=O)c1ccc(C)o1", "values": [{"measurement": "IC50", "setting": "H9c2", "result": "> 79 µM (inactive)"}]}, {"smiles": "CCn1c(C)cc(/C=C2\\C(=O)NC(=O)N(c3ccccc3C)C2=O)c1C", "values": [{"measurement": "EC50", "setting": "[4]", "result": "> 300 µM (not active)"}, {"measurement": "EC50", "setting": "[5]", "result": "> 300 µM (not active)"}]}, {"smiles": "Cc1cc(NC(=O)c2cccs2)cc(-c2nc3ncccc3o2)c1O", "values": [{"measurement": "IC50", "setting": "H9c2", "result": "> 79 µM (inactive)"}]}, {"smiles": "O=C1N=C(Nc2ccccc2)S/C1=C\\c1cccn1-c1ccccc1", "values": [{"measurement": "EC50", "setting": "H4", "result": "> 120 µM (not active)"}, {"measurement": "EC50", "setting": "[1]", "result": "32.5 µM (active)"}, {"measurement": "EC50", "setting": "[2]", "result": "> 120 µM (not active)"}]}, {"smiles": "COc1ccccc1NCC(=O)N1CCN(S(=O)(=O)c2ccccc2)CC1", "values": [{"measurement": "AC50", "setting": "INS1", "result": "> 260 µM (inactive)"}]}, {"smiles": "O=C(NCCCN1CCCC1)c1ccc2c(c1)N(Cc1ccccc1)CCS2", "values": [{"measurement": "IC50", "setting": "[3]", "result": "> 20 µM (inactive)"}, {"measurement": "AC50", "setting": "[6]", "result": "0.022 µM (active)"}]}, {"smiles": "Cc1ccc(S(=O)(=O)N2CCOCC2)cc1C(=O)Nc1ccc(S(=O)(=O)Nc2nccs2)cc1", "values": [{"measurement": "EC50", "setting": "[4]", "result": "> 300 µM (not active)"}, {"measurement": "EC50", "setting": "[5]", "result": "> 300 µM (not active)"}]}, {"smiles": "Cc1ccc2c(c1)CCCN2C(=O)CCc1nc(O)c2ccccc2n1", "values": [{"measurement": "IC50", "setting": "H9c2", "result": "> 79 µM (inactive)"}]}, {"smiles": "O=[N+]([O-])c1ccc2c(c1)nc(O)c1ccccc12", "values": [{"measurement": "IC50", "setting": "H9c2", "result": "> 79 µM (inactive)"}]}, {"smiles": "Cn1c(=O)c2nc(NN=Cc3cccc(Br)c3)[nH]c2n(C)c1=O", "values": [{"measurement": "IC50", "setting": "H9c2", "result": "> 79 µM (inactive)"}]}, {"smiles": "COc1ccc(C(O)c2nc(-c3cccc(F)c3)cs2)cc1", "note": "(stereo unspecified)", "values": [{"measurement": "AC50", "setting": "[7]", "result": "41.9 µM (active)"}]}, {"smiles": "O=C(N/N=C/c1ccccn1)c1cccc([N+](=O)[O-])c1", "values": [{"measurement": "IC50", "setting": "cells", "result": "22.2 µM (active)"}, {"measurement": "IC50", "setting": "H9c2", "result": "> 79 µM (inactive)"}]}, {"smiles": "Cc1ccc(/N=C/c2c(O)[nH]c3ccccc23)c([N+](=O)[O-])c1", "values": [{"measurement": "EC50", "setting": "H4", "result": "22.3 µM (inconclusive)"}]}]}
